Calls of active or inactive are those of the source.
Experiments:
[1] = biological target: Induced myeloid leukemia cell differentiation protein Mcl-1 (Homo sapiens, UniProt Q07820); format: functional
[2] = tested on: HeLa; experiment: ATP-based viability loss in HeLa cells – cell-based, CellTiter-Glo luminescence, cherry-pick samples, cytotoxicity control for MITF activator project, dose response (AID 540259); format: functional; conditions: Homo sapiens
[3] = biological target: Cytochrome P450 2C9 (Homo sapiens, UniProt P11712); conditions: Potency
[4] = A cytotoxicity screen of small molecule inhibitors of the PhoP region in Salmonella typhi identified in the primary screen. [Related pubchem assays: 1850, 1864, 1985 ]; format: functional
[5] = biological target: Luciferin 4-monooxygenase (Photinus pyralis, UniProt P08659); experiment: inhibition of purified Photinus pyralis luciferase – biochemical, luminescence, dose response (AID 1891)
[6] = Luminescence Cell-Based Dose Confirmation HTS to Identify Inhibitors of Platelet Dense Granule Release. [Related pubchem assays: 1663 (Primary HTS), 1678 (Summary of Project)]; format: functional
[7] = biological target: T1, Mucolipin-3 (Homo sapiens, UniProt Q8TDD5); experiment: Dose response cell-based high-throughput screening assay for agonists of the transient receptor potential channel ML3 (TRPML3). [Related pubchem assays: 1526, 1424, 1448 ]; format: functional
T1 sequence (Q8TDD5 whole entry): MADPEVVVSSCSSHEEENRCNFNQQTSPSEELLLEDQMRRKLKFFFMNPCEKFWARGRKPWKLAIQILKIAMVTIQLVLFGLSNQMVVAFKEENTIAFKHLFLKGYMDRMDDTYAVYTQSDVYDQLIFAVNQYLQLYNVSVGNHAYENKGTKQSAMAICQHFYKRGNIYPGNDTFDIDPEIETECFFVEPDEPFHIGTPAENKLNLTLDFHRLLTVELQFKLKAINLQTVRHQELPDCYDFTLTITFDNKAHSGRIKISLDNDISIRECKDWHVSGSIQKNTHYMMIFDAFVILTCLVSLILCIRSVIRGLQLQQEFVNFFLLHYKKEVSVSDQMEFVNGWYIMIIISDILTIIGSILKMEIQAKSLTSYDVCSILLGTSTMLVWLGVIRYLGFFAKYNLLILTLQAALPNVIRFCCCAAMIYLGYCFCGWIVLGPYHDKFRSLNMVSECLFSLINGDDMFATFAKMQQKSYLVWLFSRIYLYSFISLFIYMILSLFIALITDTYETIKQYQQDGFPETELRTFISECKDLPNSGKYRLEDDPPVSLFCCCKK

[8] = biological target: Ion channel NompC (Danio rerio, UniProt Q7T1G6); experiment: Fluorescence counterscreen assay for TRPML3 agonists: dose response cell-based high-throughput screening assay to identify agonists of the transient receptor potential channel N1 (TRPN1). [Related pubchem assays: 1526, 1424, 1448 ]; format: functional
[9] = cells; format: functional
[10] = HPDE-C7 pancreatic duct cell viability loss – fluorescence, HTS (AID 430); format: functional, cell-based; conditions: Homo sapiens
[11] = viability loss of HPDE-C7K cells – cell-based, fluorescence, HTS, primary screen (AID 431); format: functional; conditions: Homo sapiens
[12] = tested on: Streptococcus sp. 'group A'; experiment: Streptococcus pyogenes SK(-)GAS viability under kanamycin – luminescence, BacTiterGlo, confirmation, counter-screen for streptokinase expression inhibitor project, dose response (AID 1900); format: functional, organism-based
[13] = biological target: T2, Streptokinase A (Streptococcus pyogenes serotype M1, UniProt P10520); experiment: viability-normalized secreted streptokinase activity reduction – plasminogen activation absorbance, OD405, dose response (AID 1914); format: functional, Streptococcus pyogenes M1 GAS;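 further: secreted streptokinase activity via plasminogen activation per viability signal from cell pellet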
T2 sequence (P10520 whole entry): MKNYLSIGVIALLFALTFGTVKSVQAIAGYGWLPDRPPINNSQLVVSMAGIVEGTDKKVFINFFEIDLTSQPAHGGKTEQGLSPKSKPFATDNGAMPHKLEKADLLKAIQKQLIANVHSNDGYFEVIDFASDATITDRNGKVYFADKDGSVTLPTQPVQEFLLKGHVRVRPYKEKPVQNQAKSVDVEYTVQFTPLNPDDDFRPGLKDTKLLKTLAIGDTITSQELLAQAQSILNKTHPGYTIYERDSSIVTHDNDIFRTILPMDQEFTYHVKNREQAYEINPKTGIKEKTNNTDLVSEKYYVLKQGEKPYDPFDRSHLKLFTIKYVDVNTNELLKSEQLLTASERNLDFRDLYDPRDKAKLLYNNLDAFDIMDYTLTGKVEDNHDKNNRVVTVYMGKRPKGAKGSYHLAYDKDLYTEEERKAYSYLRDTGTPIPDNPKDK

[14] = viability of PTEN-deleted HCT116 cells – cell-based, HCT116 PTEN knockout, dose response (AID 1047); format: functional;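 further: HCT116 colon tumor cells with PTEN knocked out; cells exposed to compound for 60 hours before readout; potency for loss of cell viability measured by luminescence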
[15] = viability of HCT116 lacking mutant beta-catenin – cell-based, human colon tumor, dose response (AID 1045); format: functional;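 further: HCT116 colon tumor cells with beta catenin knocked out; cells exposed to compound for 60 hours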
[16] = tested on: Streptococcus; experiment: GAS UMAA2166 growth inhibition – luminescence, BacTiterGlo, counter-screen for streptokinase expression inhibitor project, dose response (AID 1915); format: functional, organism-based;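 further: potency for reduction of bacterial viability or growth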
[17] = biological target: T3, Caspase-3 (Homo sapiens, UniProt P42574); format: functional;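 further: Dose-response selectivity test against caspase-3 for candidate inhibitors of sentrin-specific proteases (SENPs)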
T3 sequence (P42574 whole entry): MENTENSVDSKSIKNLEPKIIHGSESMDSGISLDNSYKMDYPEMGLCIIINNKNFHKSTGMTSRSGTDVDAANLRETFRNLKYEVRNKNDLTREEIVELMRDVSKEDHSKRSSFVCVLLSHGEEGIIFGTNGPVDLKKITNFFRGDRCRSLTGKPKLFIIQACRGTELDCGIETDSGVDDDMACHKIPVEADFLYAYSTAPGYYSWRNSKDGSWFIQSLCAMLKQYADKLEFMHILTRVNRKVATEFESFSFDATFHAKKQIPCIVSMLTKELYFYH

[18] = biological target: T4, Sentrin-specific protease 7 (Homo sapiens, UniProt Q9BQF6); format: functional;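 further: Luminescence-based dose-response confirmation of ultra-high-throughput screening hits, measuring inhibition of SENP7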
T4 sequence (Q9BQF6 whole entry): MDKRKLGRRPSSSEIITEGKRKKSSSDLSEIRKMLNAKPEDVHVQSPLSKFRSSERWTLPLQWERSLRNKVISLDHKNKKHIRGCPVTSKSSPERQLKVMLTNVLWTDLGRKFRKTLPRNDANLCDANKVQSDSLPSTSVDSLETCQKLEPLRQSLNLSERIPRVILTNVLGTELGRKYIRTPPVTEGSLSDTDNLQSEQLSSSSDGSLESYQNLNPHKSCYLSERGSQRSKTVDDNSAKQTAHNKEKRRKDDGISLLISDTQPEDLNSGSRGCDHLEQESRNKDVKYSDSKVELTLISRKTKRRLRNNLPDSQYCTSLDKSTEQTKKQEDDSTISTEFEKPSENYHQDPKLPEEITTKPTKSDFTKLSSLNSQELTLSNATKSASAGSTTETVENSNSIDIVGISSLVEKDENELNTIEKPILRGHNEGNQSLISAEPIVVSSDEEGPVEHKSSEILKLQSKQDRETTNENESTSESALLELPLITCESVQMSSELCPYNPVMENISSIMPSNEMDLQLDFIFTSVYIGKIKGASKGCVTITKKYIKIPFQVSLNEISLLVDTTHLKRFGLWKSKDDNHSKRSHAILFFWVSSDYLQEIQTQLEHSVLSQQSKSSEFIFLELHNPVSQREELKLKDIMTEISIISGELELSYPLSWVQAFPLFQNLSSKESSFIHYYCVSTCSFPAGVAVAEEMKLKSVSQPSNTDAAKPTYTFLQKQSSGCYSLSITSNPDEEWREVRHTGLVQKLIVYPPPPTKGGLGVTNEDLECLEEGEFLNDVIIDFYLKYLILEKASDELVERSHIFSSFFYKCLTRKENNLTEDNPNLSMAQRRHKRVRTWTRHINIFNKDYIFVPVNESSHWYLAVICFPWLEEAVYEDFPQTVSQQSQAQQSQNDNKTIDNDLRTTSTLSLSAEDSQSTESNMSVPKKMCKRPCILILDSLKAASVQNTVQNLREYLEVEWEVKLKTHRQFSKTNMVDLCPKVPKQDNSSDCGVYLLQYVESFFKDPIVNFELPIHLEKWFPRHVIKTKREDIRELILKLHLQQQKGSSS

[19] = biological target: T5, Sentrin-specific protease 6 (Homo sapiens, UniProt Q9GZR1); format: functional;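 further: Luminescence-based dose-response confirmatory assay of SENP6 inhibition, following up an ultra-high-throughput screen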
T5 sequence (Q9GZR1 whole entry): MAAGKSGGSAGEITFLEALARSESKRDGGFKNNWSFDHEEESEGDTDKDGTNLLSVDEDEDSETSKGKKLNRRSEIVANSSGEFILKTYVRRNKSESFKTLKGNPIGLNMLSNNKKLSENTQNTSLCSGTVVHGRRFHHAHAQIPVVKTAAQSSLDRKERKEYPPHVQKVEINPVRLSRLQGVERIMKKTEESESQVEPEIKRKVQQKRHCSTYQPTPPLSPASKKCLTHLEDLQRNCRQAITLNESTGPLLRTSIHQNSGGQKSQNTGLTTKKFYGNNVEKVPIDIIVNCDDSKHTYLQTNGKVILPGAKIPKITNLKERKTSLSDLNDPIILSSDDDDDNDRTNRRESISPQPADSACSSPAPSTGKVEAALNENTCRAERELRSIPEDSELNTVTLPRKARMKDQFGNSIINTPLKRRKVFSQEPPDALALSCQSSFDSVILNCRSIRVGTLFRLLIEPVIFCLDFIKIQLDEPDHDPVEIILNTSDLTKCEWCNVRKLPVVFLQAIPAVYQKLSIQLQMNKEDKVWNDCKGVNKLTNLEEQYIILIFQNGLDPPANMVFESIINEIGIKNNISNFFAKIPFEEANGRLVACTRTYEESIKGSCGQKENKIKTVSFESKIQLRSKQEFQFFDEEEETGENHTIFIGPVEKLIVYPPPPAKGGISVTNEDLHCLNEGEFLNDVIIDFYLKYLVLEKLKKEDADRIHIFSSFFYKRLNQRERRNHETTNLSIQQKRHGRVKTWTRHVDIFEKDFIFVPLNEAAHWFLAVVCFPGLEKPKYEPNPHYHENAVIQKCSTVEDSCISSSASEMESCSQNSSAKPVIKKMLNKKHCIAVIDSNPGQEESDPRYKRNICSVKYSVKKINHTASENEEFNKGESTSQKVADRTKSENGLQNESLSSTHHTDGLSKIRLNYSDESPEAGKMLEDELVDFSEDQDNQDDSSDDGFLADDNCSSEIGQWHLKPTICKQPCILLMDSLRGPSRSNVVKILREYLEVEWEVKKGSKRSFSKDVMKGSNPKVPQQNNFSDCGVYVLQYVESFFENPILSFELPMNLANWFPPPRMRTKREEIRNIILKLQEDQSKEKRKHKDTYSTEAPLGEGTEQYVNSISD

[20] = biological target: T6, Sentrin-specific protease 8 (Homo sapiens, UniProt Q96LD8); format: functional;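 further: luminescence read-out of SENP8 inhibition, dose-response confirmation following an ultra-high-throughput screen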
T6 sequence (Q96LD8 whole entry): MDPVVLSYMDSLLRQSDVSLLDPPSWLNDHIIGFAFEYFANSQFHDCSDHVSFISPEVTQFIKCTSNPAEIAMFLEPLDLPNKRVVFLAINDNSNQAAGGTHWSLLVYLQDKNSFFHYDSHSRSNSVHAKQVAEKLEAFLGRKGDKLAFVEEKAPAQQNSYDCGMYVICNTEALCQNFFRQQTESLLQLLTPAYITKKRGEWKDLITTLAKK

[21] = biological target: Heat shock protein HSP 90-alpha (Homo sapiens, UniProt P07900); format: functional, organism-based

Ion channel NompC, sequence (Q7T1G6 whole entry): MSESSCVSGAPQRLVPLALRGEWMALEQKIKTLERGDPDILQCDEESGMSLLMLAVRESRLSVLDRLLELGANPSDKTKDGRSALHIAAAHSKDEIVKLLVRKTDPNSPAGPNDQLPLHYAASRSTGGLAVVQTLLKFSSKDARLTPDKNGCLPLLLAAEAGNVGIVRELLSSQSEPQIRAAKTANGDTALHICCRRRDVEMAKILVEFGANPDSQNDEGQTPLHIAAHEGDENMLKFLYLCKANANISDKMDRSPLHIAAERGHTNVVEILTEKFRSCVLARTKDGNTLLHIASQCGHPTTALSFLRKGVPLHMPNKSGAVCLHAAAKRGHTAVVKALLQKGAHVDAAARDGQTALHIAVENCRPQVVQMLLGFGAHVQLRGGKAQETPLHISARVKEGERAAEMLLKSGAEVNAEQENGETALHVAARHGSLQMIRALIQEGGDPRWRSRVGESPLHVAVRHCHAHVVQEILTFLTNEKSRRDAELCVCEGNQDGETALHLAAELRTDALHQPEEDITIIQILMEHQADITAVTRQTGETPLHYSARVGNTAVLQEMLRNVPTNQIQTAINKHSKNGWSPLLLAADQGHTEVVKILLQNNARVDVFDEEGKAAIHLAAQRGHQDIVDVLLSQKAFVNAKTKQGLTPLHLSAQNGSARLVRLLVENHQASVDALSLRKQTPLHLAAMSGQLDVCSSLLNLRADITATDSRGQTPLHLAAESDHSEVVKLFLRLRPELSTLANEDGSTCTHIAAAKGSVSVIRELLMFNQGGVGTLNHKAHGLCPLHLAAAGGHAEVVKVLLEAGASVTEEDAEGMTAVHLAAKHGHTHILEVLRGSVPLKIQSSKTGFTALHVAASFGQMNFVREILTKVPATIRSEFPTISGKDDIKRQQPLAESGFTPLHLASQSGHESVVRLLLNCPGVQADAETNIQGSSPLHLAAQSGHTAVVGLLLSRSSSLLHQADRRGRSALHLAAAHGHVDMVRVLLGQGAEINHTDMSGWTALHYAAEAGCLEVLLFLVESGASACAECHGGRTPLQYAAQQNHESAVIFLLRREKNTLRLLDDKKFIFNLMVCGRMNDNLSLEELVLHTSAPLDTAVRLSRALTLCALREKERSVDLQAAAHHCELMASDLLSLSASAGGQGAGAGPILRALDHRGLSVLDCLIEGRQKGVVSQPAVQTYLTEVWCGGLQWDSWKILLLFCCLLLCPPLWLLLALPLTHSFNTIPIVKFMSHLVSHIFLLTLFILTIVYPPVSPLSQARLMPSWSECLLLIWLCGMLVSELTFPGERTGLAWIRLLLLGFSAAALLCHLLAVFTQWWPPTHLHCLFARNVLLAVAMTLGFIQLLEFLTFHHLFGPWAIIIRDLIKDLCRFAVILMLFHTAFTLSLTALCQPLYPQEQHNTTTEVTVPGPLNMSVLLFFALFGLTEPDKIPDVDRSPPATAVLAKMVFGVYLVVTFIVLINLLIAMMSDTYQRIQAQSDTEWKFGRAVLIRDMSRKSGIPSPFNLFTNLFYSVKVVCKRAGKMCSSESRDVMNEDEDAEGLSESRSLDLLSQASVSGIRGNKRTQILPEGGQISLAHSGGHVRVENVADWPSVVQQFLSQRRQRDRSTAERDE
Induced myeloid leukemia cell differentiation protein Mcl-1, sequence (Q07820 whole entry): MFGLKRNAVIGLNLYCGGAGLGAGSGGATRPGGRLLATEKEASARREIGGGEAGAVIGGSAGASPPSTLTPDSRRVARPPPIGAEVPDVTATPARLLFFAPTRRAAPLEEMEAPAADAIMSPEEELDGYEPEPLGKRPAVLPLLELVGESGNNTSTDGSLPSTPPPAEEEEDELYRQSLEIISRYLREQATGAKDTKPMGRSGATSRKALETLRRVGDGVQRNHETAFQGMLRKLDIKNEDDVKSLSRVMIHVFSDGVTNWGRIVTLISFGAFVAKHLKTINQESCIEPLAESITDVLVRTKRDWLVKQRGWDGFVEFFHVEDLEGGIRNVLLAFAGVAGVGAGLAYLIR
Cytochrome P450 2C9, sequence (P11712 whole entry): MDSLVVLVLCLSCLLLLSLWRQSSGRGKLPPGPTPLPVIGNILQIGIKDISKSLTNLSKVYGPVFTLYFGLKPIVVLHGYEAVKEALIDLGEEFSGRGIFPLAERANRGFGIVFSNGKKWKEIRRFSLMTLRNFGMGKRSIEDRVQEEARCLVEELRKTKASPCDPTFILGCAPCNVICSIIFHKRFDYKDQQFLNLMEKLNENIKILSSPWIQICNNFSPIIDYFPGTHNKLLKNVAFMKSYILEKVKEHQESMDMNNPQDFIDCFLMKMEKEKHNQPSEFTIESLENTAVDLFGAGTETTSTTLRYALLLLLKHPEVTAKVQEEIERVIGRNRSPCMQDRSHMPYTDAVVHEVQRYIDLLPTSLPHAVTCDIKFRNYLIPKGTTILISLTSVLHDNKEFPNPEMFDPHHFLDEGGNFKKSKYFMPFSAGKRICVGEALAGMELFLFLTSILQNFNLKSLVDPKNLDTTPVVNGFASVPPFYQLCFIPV
Luciferin 4-monooxygenase, sequence (P08659 whole entry): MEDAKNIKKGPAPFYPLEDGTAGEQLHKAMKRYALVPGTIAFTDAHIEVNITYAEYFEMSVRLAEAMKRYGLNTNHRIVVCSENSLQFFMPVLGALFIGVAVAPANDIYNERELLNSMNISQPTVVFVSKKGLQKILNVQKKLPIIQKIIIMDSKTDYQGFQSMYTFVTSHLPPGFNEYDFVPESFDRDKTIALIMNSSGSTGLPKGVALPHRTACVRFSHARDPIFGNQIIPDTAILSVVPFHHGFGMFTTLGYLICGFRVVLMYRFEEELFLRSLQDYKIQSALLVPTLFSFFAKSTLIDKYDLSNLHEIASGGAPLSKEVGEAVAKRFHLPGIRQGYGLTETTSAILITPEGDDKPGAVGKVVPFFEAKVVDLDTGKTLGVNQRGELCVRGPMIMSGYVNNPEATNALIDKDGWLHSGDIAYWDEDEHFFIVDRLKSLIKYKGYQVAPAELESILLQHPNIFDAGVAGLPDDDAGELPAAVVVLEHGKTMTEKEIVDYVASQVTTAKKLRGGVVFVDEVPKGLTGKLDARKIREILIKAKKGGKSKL

## CCOC(=O)c1cc(-c2ccco2)nc2c1c(C)nn2-c1cccc(Cl)c1
[1]
  IC50: 2.51 µM (active)

## COc1cc(O)c2c(=O)cc(-c3ccccc3)oc2c1 [TECHTOCHRYSIN]
[2]
  AC50: 46.2 µM (active)
[3]
  AC50: 2.51 µM (inconclusive)

## C=CCOc1ccc(Cl)cc1CNC1CCCC1
[4]
  EC50: > 50 µM (active)

## CCN(CC)S(=O)(=O)c1cc(NC(=O)C2Cc3ccccc3C(=O)O2)ccc1C (stereo unspecified)
[4]
  EC50: > 50 µM (active)
[5]
  EC50: > 112 µM (not active)
[6]
  EC50: > 112 µM (not active)

## CC(C)C[C@@H](CC(=O)N[C@H](CC(=O)N[C@@H]1CCCC[C@H]1C(=O)N[C@H](CC(=O)N[C@@H](CCC(=O)O)CC(=O)O)Cc1ccccc1)C(C)C)NC(=O)[C@@H]1CCCC[C@H]1N
[3]
  AC50: 39.8 µM (inconclusive)

## COC(=O)c1ccc(Cl)cc1N(Cc1c(F)cccc1Cl)S(C)(=O)=O
[7]
  EC50: 2.49 µM (active)
[8]
  EC50: 6.15 µM (active)

## O=C(C1Cc2ccccc2CN1S(=O)(=O)c1ccc(F)cc1)N1CCCCCC1 (stereo unspecified)
[7]
  EC50: 3.72 µM (active)
[8]
  EC50: > 29.9 µM (not active)

## [O-][n+]1onc2c1CCC(=N/O)/C2=N\Nc1ccccc1
[1]
  IC50: 4.87 µM (active)

## COc1ccc(-c2noc(CCC(=O)Nc3cccc(C)c3)n2)cc1
[4]
  EC50: > 50 µM (active)
[9]
  IC50: 15.9 µM (active)

## N#Cc1nc(-c2ccc(OCc3ccccc3)cc2)oc1NCCCN1CCOCC1
[10]
  EC50: 13 µM (active)
[11]
  EC50: 13.6 µM (active)

## Cc1nn(C(C)(C)C)c(OC(=O)C2CCCC2)c1S(=O)(=O)c1ccccc1
[7]
  EC50: > 9.99 µM (not active)
[8]
  EC50: > 29.9 µM (not active)

## COc1ccc(O)c(-c2cc(-c3cccc(Br)c3)[nH]n2)c1
[12]
  EC50: 6.53 µM (active)
[13]
  EC50: > 150 µM (inconclusive)
[10]
  EC50: 8.85 µM (active)
[11]
  EC50: 4.73 µM (active)
[14]
  EC50: 25.4 µM (active)
[15]
  EC50: 16.6 µM (active)
[16]
  EC50: 12.4 µM (active)
[17]
  IC50: 97.7 µM (active)
[18]
  IC50: 11.3 µM (active)
[19]
  IC50: 26.5 µM (active)
[20]
  IC50: 29.1 µM (active)
[21]
  AC50: 8.06 µM (active)

From ChEMBL document CHEMBL1201862, “PubChem BioAssay data set” (2004)
